Test results as given in patent EP3502093A1, “ZWITTERIONIC PILLARARENE DERIVATIVE” (Freie Universität Berlin, priority 2017, dated 2019).

Key:
E. coli biofilm [1] = assay: treatment of pre-fabricated biofilms of different stages for 24 h, LIVE/DEAD staining; format: cell-based; settings: 200 nM, treated 24 h
Method: As depicted in Figure 2, E. coli biofilm in different stages - namely, in colony formation stage (1 day growth ["cultivated 1 + 1 days"]) and in maturation stages (3 days growth ["cultivated 1 + 3 days"] or 5 days growth ["cultivated 1 + 5 days"], respectively), were pre-fabricated according to literature^16 and then treated with a dose of 200 nM ZW-PA nanoparticles, 200 nM ampicillin or PBS for another 24 h. Afterwards, the resulting biofilms on the 2nd day, the 4th day and the 6th day were observed. A LIVE/DEAD staining of the E. coli cells was applied. By this staining, living cells are stained green, while dead cells are stained red. […] Specifically, the biofilm height increased from 8 µm on the 2nd day (1st + 1 day) to 25 µm on the 6th day (1st + 5 days). Only green (living) cells could be observed. The scale bars in all plots of Figure 2 represent 50 µm.

E. coli biofilm [2] = assay: prolonged incubation (24 h, 72 h, 120 h) of 1-day pre-fabricated biofilm, regrowth and resistance; format: cell-based; settings: 1-day biofilm, 200 nM
Method: Biofilms are considered to be highly resistant to antibacterial agents due to restricted penetration of antibacterial agents into biofilms, slow growth owing to nutrient limitation, expression of genes involved in the general stress response, and emergence of a biofilm-specific phenotype. Thus, it is important to investigate the emergence of resistances against a new antibacterial agent used for combating biofilms. Therefore, ZW-PA nanoparticles in a concentration of 200 nM were applied to a biofilm pre-fabricated for 1 day. Subsequently, the biofilm was incubated with ZW-PA nanoparticles and investigated after 1 day incubation (24 h, cultivated 1 + 1 days), after 3 days incubation (72 h, cultivated 1 + 3 days), and after 5 days incubation (120 h, cultivated 1 + 5 days). PBS and 200 nM ampicillin were used as controls. The scale bars in all plots of Figure 3 represent 50 µm.

[3] = biofilm grown 1 day (1 + 1 days)
[4] = biofilm grown 5 days (1 + 5 days)

## CC1(C)S[C@@H]2[C@H](NC(=O)[C@H](N)c3ccccc3)C(=O)N2[C@H]1C(=O)O [ampicillin]
E. coli biofilm [1]; [3]
  LIVE/DEAD staining, killing of cells in biofilm: less than the half of the cells, were stained red
  biofilm height: 5 µm
E. coli biofilm [1]; biofilm grown 3 days (1 + 3 days)
  LIVE/DEAD staining, killing of cells in biofilm: most of the cells were still alive
E. coli biofilm [1]; [4]
  LIVE/DEAD staining, killing of cells in biofilm: effective only against the cells on the surface layer of the biofilm
  biofilm height: 24 µm
E. coli biofilm [2]; 24 h incubation (1 + 1 days)
  LIVE/DEAD staining, killing of cells in biofilm: a part of the cells could be killed
E. coli biofilm [2]; 72 h incubation (1 + 3 days)
  LIVE/DEAD staining, living versus dead cells: more green than red cells
E. coli biofilm [2]; 120 h incubation (1 + 5 days)
  LIVE/DEAD staining, living versus dead cells: more red than green cells
E. coli biofilm [2]; further incubated to 72 h and 120 h
  cell density and reformation of the biofilm on further incubation: the biofilm could gradually reform
